Data on one compound can be found in article PMC1660542, “Structure-based discovery of inhibitors of the YycG histidine kinase: New chemical leads to combat Staphylococcus epidermidis infections” (BMC Microbiology, 2006).

One data set deals with T1, YycG' protein (Staphylococcus epidermidis, UniProt Q8CU87).
T1 construct: of YycG (370aa to 610aa) was amplified by PCR; His-tag (pET28a) (N); made in house; host or cells: E. coli BL21 (pET28a, pETYycG')
The data set is described as follows: Compound-YycG' protein binding assay (SPR, Biacore 3000). The conditions noted are these: SPR sensorgram shape. The text has this: The YycG' fragment containing the cytoplasmic signal domains (the HATPase_c and HisKA domain, see Figure 1A) of YycG (370aa to 610aa) was amplified by PCR (with the chromosomal DNA of S. epidermidis ATCC12228 as the template, and (5' […] 3') and (5' […] 3') as the primers. Subsequently, the fragment was digested with BamHI and XholI (TAKARA, Japan) and ligated into the corresponding sites of pET28a (Promega, Madison, USA) to obtain pETYycG'. The expressed YycG' protein was purified with the ProBond™ Purification System (Invitrogen, California, USA), according to the manufacturer's protocol.
The in vitro binding affinities of the inhibitor compounds to the YycG' protein was determined using surface plasmon resonance (SPR) biosensor technology on the dual flow cell Biacore 3000 instrument (Biacore AB, Uppsala, Sweden) with a similar method as described in our previous study. Immobilization of the YycG' protein to the hydrophilic carboxymethylated dextran matrix of the sensor chip CM5 (Biacore) was carried out by the standard primary amine coupling reaction. […] The equilibrium constants (KD) evaluating the protein-ligand binding affinity were determined by the steady state or the kinetic state affinity fitting model encoded in the Biacore analysis software.
In general terms: SPR reads the build-up and loss of mass on a sensor chip optically.

Data set [1] has as its system S. epidermidis ATCC12228. The data set is described as follows: MIC assay (broth dilution in tubes, CLSI). The conditions noted are these: for MIC: Staphylococcus epidermidis. The data set is classed as cell-based, Staphylococcus epidermidis. From the text:
(§1) Staphylococcus epidermidis ATCC12228 and RP62A strains were purchased from the American Type Culture Collection (ATCC, Manassas, USA). Staphylococcus aureus ATCC29213, Escherichia coli ATCC25922 and Pseudomonas aeruginosa ATCC27853 were kindly provided by Dr. Bijie Hu at Zhongshan Hospital (Shanghai, China). S. epidermidis strains se527, se886, se847, seG203, Streptococcus pyogenes strain 144, and Streptococcus mutans strain 128 were all clinical isolates from Zhongshan Hospital and Huashan Hospital (Shanghai, China). If not stated otherwise, S. epidermidis and S. aureus strains were grown at 37°C in tryptic soy broth (TSB, Oxoid) containing 0.25% glucose, E. coli and P. aeruginosa strains were grown at 37°C in Luria-Bertani (LB, Oxoid).
(§2) MIC assays for the antibacterial activities of the compounds were performed according to the broth micro-dilution (in tubes) method of the Clinical and Laboratory Standards Institute (CLSI) of America. The Minimal Bactericidal Concentration (MBC) was obtained by subculturing 100 μl from each negative (no visible bacterial growth) tube from the MIC assay, onto substance-free Mueller-Hinton agar plates. The plates were incubated at 37°C for 24 hours, and the MBC was defined as the lowest concentration of substance which produced subcultures growing no more than five colonies on each plate.

In the next data set the test system is S. pyogenes 144. The data set is described as follows: MIC assay (broth dilution in tubes, CLSI). The class given is cell-based, Streptococcus pyogenes. The conditions noted are these: Streptococcus pyogenes; S. pyogenes 144; read-out: Minimal inhibitory concentration (MIC).
Source text: as §1, §2

Data set [2] can be described thus: Cytotoxicity on Vero cell (MTT, Cell Proliferation Kit I). Conditions: African green monkey, Vero cells, highest concentration tested 200 μM. The data set is classed as cell-based, African Green-monkey. The protocol: (§3) Cytotoxicity of the antibacterial compounds on cultured Vero cell was measured by using the Cell Proliferation Kit I (MTT) (Roche, Indianapolis, USA) according to the manufacturer's protocol. Addition of DMSO (1%) in the medium produced a slight cytotoxicity on Vero cell, which could easily be corrected for. Each assay was performed in quadruplicate and repeated three times. The results were converted to percentage of the control (cells only treated with 1% DMSO) and CC50 (concentrations that produce a 50% cytotoxicity effect on Vero cell) was calculated by the Origin v7.0 software (OriginLab, Northampton, USA). Hemolytic activities of the compounds were determined by using healthy human erythrocytes. The erythrocytes were washed three times in sterile saline and resuspended to 5% prior to the assay. […] Cells without compound treatment and cells with 1% Triton-100 treatment were used as 0% and 100% hemolysis controls, respectively. The cell suspensions were incubated for 1 hour at 37°C and centrifuged at 1000×g for 10 min. Volumes of 100 μl supernatants were transferred to another sterile plate and hemoglobin release from the cells was determined at 570 nm. […] The hemolysis assays were repeated twice.

Data set [3] can be described thus: Erythrocyte hemolysis assay. The conditions noted are these: human, erythrocytes (5% suspension), 1 hour, 37°C. The data set is classed as cell-based, human. The protocol: as §3
In the next data set the test system is S. mutans 128. In words: MIC assay (broth dilution in tubes, CLSI). Conditions: Streptococcus mutans; S. mutans 128; read-out: Minimal inhibitory concentration (MIC). The data set is classed as cell-based, Streptococcus mutans.
Source text: as §1, §2

The next data set deals with SrrB'. In words: Inhibition of SrrB' autophosphorylation (Kinase-Glo). The data set is classed as biochemical, S. epidermidis. Conditions: compound 50 μM, 4 μg protein, 3 μM ATP. A general note: Kinase-Glo reads ATP consumption through a luciferase reaction.
The next data set has as its system S. aureus ATCC29213. The data set is described as follows: MIC assay (broth dilution in tubes, CLSI). The class given is cell-based, Staphylococcus aureus. Conditions: Staphylococcus aureus; S. aureus ATCC29213; read-out: Minimal inhibitory concentration (MIC).
Source text: as §1, §2

In data set [4] the test system is S. epidermidis ATCC12228. In words: Minimal bactericidal concentration (MBC) assay. The data set is classed as cell-based. Conditions: Staphylococcus epidermidis. The protocol:
as §2

The test system of data set [5] is S. epidermidis RP62A. The data set is described as follows: Minimal bactericidal concentration (MBC) assay. The data set is classed as cell-based. Conditions: Staphylococcus epidermidis; S. epidermidis RP62A; read-out: Minimal bactericidal concentration (MBC). The procedure: as §2
For data set [6], the system named is S. epidermidis RP62A. The data set is described as follows: MIC assay (broth dilution in tubes, CLSI). The class given is cell-based. The conditions noted are these: Staphylococcus epidermidis; S. epidermidis RP62A (biofilm-forming strain); read-out: Minimal inhibitory concentration (MIC).
Source text: as §1, §2

Converted amounts (≈) assume the structure as drawn. Where two headings read alike, the source gives them in different places.

T1 sequence (Q8CU87 370-610): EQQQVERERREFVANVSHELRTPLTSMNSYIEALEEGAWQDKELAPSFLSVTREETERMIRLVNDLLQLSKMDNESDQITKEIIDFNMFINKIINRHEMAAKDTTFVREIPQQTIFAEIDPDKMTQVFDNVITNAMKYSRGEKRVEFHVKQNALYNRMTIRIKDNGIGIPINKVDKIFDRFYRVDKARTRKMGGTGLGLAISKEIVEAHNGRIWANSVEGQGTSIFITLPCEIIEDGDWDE

In general, CC50 refers to the concentration that lowers cell viability or growth by half. With `Cc1ccc(NC(=O)CN2C(=O)S/C(=C\c3ccc(OCc4cccc(C(O)O)c4)cc3)C2=O)cc1` [Compound 7], on YycG' protein, the “Association/dissociation pattern in SPR” value is “slow association and slow dissociation”. In addition, the “Antibacterial effectiveness” value in the data set with S. epidermidis ATCC12228 [1] (ATCC12228 versus RP62A) was “only effective against the non-biofilm-forming strain ATCC12228”. For the same compound, the MIC with S. epidermidis ATCC12228 [1] (ATCC12228, Table 2, as tested on S. epidermidis ATCC 12228, read-out: MICs) was 0.2 µM (≈ 0.101 µg/mL); in the data set with S. epidermidis ATCC12228 [1] (S. epidermidis ATCC12228 (non-biofilm-forming strain), read-out: Minimal inhibitory concentration (MIC)), 0.2 µM (≈ 0.101 µg/mL); with S. pyogenes 144 it was more than 200 µM; in the data set on S. mutans 128, more than 200 µM; in the data set with S. aureus ATCC29213, more than 200 µM; in the data set with S. epidermidis RP62A [6], more than 200 µM. Besides, the CC50 in [2] is more than 200 µM. Besides, the hemolysis at 1 h in data set [3] (at 4 × MIC (number in parenthesis)) and in data set [3] (at MIC for S. epidermidis ATCC12228) was less than 0.1% throughout. Besides, the “Inhibition of SrrB' phosphorylation” value with SrrB' is on record as 2%. Besides, the MBC with S. epidermidis ATCC12228 [4] and with S. epidermidis RP62A [5] was more than 400 µM each time.
